Measured values from PubChem BioAssay (NCI).
Several values for one entry are separate records, joined by “and”; a condition that tells them apart may be missing. Identical values can stand only once.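 Cultured in 96-well plates, cells were exposed to test compound for 48 hours across five concentrations. The concentration for 50% growth inhibition is given as GI50. TGI is the concentration that stops growth completely.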

Test system: RPMI-8226 leukemia
Assay: NCI-60 cell line screen, 48 h

Row | Structure (SMILES) | GI50 [nM] | TGI
1 | COCCOc1cc(F)c2c(Nc3ccc(NC(=O)Cn4cc(C(C)C)nn4)cc3)ncnc2c1 | > 100000 | > 100 µM
2 | Cc1ccc(SC(C)/C=C/NNC2=NC(c3ccccc3)C(c3ccccc3)=NN2)cc1 (stereo not drawn) |  | > 100 µM
3 | CC(C)(C)[SiH]12(OC(C(F)(F)F)(C(F)(F)F)c3ccccc31)OC(C(F)(F)F)(C(F)(F)F)c1ccccc12 |  | > 100 µM
4 | Cc1nnc(S(=O)(=O)c2ccc(N=Nc3c(N)nc(N)nc3N)cc2)s1 |  | > 100 µM
5 | O=S(O)CCCCSSCC(O)C(O)CSSCCCCS(=O)O (stereo not drawn) |  | 46.4 µM and 46.1 µM
6 | CNCCNc1c2c(c(NCCNC)c3c(CN(C)C)c[nH]c13)C(=O)c1ccccc1C2=O | 938 | 5.2 µM
7 | Clc1ccc2c(NCCCNc3nccc(Nc4ccc(Br)cc4)n3)ccnc2c1 | 1970 | 4.45 µM
8 | Cc1ccccc1N1C(=O)/C(=C/c2ccc(N(CCC#N)CCC#N)cc2)N=C1c1cc([N+](=O)[O-])ccc1Cl |  | > 100 µM
9 | CC1OC2CC(=O)OC2C2=C1C(=O)c1c(O)cccc1C2=O (stereo not drawn) | 58.7 | 0.602 µM
10 | C/C1=C\CC[C@@]2(C)O[C@@H]2[C@H]2OC(=O)[C@@H](CN(C)C)[C@@H]2CC1 | 2390 | 23.1 µM
11 | C=C(C=O)C1CCC2(C(=O)O)CCC3(C)C(CCC4C5(C)CCC(O)C(C)(C)C5CCC43C)C12 (stereo not drawn) | 2640 | > 100 µM
12 | Cc1ccc(S(=O)(=O)NCC2CCCCC2=O)cc1 (stereo not drawn) |  | > 100 µM
13 | CCC[CH2][Sn]([CH2]CCC)([CH2]CCC)[O]C(=O)CC | 169 | 0.506 µM
14 | CNC(=S)NC1CCCCC1NC(=S)NC (stereo not drawn) |  | > 100 µM
15 | C=C(C)[C@@]12OC3(/C=C/C=C/CCCCC)O[C@@H]1[C@@H]1[C@@H]4O[C@]4(CO)[C@@H](O)[C@]4(O)C(=O)C(C)=C[C@H]4[C@@]1(O3)[C@H](C)[C@H]2OC(=O)c1ccccc1 | 3350 | > 23.2 µM

Test system: RXF 393 renal
Assay: NCI-60 cell line screen, 48 h

Row | Structure (SMILES) | TGI | GI50 [nM]
16 | CNC(=S)N(C)C(=S)Nn1c(=O)c(C)nn(C)c1=S | > 100 µM | 
17 | CCCCCCCCCC/C=C/CC(=O)SCCNC(=O)CCNC(=O)[C@@H](O)C(C)(C)COP(=O)(O)OP(=O)(O)OCC1OC(n2cnc3c(N)ncnc32)C(O)C1OP(=O)(O)O (stereo partly drawn) | > 10 µM | 
18 | Cc1c2cccnc2c(C)c2c1c1cc(CO)ccc1n2C | 5.5 µM | 1930
19 | CCCCN(CCCC)CC(C(=O)Nc1ccc([N+](=O)[O-])cc1[N+](=O)[O-])/C(C)=N\NC(=S)NN (stereo not drawn) | > 100 µM | 
20 | S=C(N/N=C/c1ccco1)NC12CC3CC(CC(C3)C1)C2 | > 100 µM | 
21 | CCOC(=O)/C=C/C(C(=O)/C=C/c1ccc(OC2CCCCO2)c(OC)c1)=C(O)\C=C\c1ccc(OC2CCCCO2)c(OC)c1 (stereo not drawn) | 5.68 µM | 2210
22 | O=[N+]([O-])c1nccn1CC(O)c1ccc(F)cc1 (stereo not drawn) | > 100 µM | 
23 | COc1ccc(NC(=O)CCc2cc(-c3ccc(O)c(OC)c3)nc(NC#N)n2)cc1 | > 100 µM | 
24 | O=C1c2ccccc2C2(Br)C(=O)c3ccccc3C12 (stereo not drawn) | > 100 µM | 
25 | CC(=O)Nc1ccc(C(=O)NN2C(=O)C(Cl)C2c2ccccc2)cc1 (stereo not drawn) | > 100 µM | 
26 | COCCOc1cc(F)c2c(Nc3ccc(NC(=O)Cn4cc(C(C)C)nn4)cc3)ncnc2c1 | > 100 µM | 10200
27 | Cc1nnc(S(=O)(=O)c2ccc(N=Nc3c(N)nc(N)nc3N)cc2)s1 | > 100 µM | 
28 | O=S(O)CCCCSSCC(O)C(O)CSSCCCCS(=O)O (stereo not drawn) | 38 µM and 89.8 µM | 
29 | CNCCNc1c2c(c(NCCNC)c3c(CN(C)C)c[nH]c13)C(=O)c1ccccc1C2=O | 11 µM | 2500
30 | O=C1OC(c2ccccc2)=N/C1=C/C=C/c1ccco1 | > 100 µM | 
31 | CC1OC2CC(=O)OC2C2=C1C(=O)c1c(O)cccc1C2=O (stereo not drawn) | 0.0499 µM | 19.5
32 | C/C1=C\CC[C@@]2(C)O[C@@H]2[C@H]2OC(=O)[C@@H](CN(C)C)[C@@H]2CC1 | 50.5 µM | 16100
33 | C=C(C=O)C1CCC2(C(=O)O)CCC3(C)C(CCC4C5(C)CCC(O)C(C)(C)C5CCC43C)C12 (stereo not drawn) | 2.99 µM | 1340
34 | Cc1ccc(S(=O)(=O)NCC2CCCCC2=O)cc1 (stereo not drawn) | > 100 µM | 
35 | CCC[CH2][Sn]([CH2]CCC)([CH2]CCC)[O]C(=O)CC | 0.285 µM | 140
36 | C=C(C)[C@@]12OC3(/C=C/C=C/CCCCC)O[C@@H]1[C@@H]1[C@@H]4O[C@]4(CO)[C@@H](O)[C@]4(O)C(=O)C(C)=C[C@H]4[C@@]1(O3)[C@H](C)[C@H]2OC(=O)c1ccccc1 | 3.49 µM | 1870
